Experimental data published in the CheMixHub ionic liquid set.

Test: xn = mol fraction of the nth substance listed

CCCC[n+]1ccn(C)c1.[Br-] + Cc1ncc(CO)c(CO)c1O.Cl + O
viscosity [mPa·s], 100 kPa
Conditions	293.15 K	298.15 K	303.15 K	308.15 K	313.15 K
x2 = 0, x1 = 0.0009002	1.033	0.918	0.823	0.753	0.676
x2 = 0, x1 = 0.001799	1.057	0.938	0.841	0.757	0.689
x2 = 0, x1 = 0.002696	1.068	1.001	0.904	0.796	0.748
x2 = 0.0002693, x1 = 0.0008999	1.037	0.922	0.827	0.757	0.68
x2 = 0.0002812, x1 = 0.001798	1.062	0.943	0.846	0.762	0.694
x2 = 0.0002821, x1 = 0.002695	1.073	1.006	0.909	0.801	0.753
x2 = 0.0004585, x1 = 0.0008998	1.041	0.926	0.831	0.761	0.684
x2 = 0.0005547, x1 = 0.002694	1.078	1.011	0.914	0.806	0.758
x2 = 0.0005732, x1 = 0.001798	1.067	0.948	0.851	0.767	0.699
x2 = 0.0008147, x1 = 0.0008995	1.047	0.932	0.837	0.768	0.691
x2 = 0.0008302, x1 = 0.001797	1.072	0.953	0.856	0.772	0.704
x2 = 0.0008383, x1 = 0.002693	1.083	1.016	0.919	0.811	0.763
x2 = 0.001093, x1 = 0.0008992	1.052	0.937	0.842	0.774	0.696
x2 = 0.001142, x1 = 0.001797	1.078	0.959	0.861	0.777	0.709
x2 = 0.001151, x1 = 0.002693	1.089	1.022	0.925	0.816	0.768
x2 = 0.00136, x1 = 0.000899	1.058	0.943	0.848	0.78	0.703
x2 = 0.001373, x1 = 0.001796	1.082	0.963	0.865	0.781	0.713
x2 = 0.001399, x1 = 0.002692	1.094	1.027	0.929	0.82	0.772
x2 = 0.001637, x1 = 0.0008987	1.063	0.948	0.854	0.785	0.708
x2 = 0.001664, x1 = 0.002691	1.098	1.032	0.933	0.825	0.777
x2 = 0.001674, x1 = 0.001796	1.087	0.968	0.87	0.786	0.718

CS(C)=O + Cn1cc[n+](CCCN)c1.F[B-](F)(F)F
Conditions	viscosity [mPa·s]
328.15 K, 101 kPa, x2 = 0	1.249

CCCC[N+]1(C)CCCC1.FC(F)(F)C(F)(F)[P-](F)(F)(F)(C(F)(F)C(F)(F)F)C(F)(F)C(F)(F)F + FC(F)(F)c1ccccc1
101 kPa, x1 = 1
Conditions	electrical conductivity [S/m]	viscosity [mPa·s]
298.1 K	0.113	283
303 K	0.146	214
308.1 K	0.186	166.2
313 K	0.23	122.1
318.1 K	0.273	100.3
323 K	0.332	80.1

CCCC[n+]1ccn(C)c1.[Br-] + NC(N)=NCCC[C@H](N)C(=O)O + O
Conditions	viscosity [mPa·s]
313.15 K, 101.3 kPa, x2 = 0, x1 = 0.0007203	0.674

CCCC[n+]1ccn(C)c1.[Br-] + NC(N)=O + O
298.15 K, 100 kPa
Conditions	viscosity [mPa·s]
x2 = 0, x3 = 0.9487	2.21
x2 = 0.008492, x3 = 0.9402	2.29
x2 = 0.01695, x3 = 0.9318	2.29
x2 = 0.02496, x3 = 0.9237	2.28
x2 = 0.02678, x3 = 0.9219	2.36
x2 = 0.03322, x3 = 0.9155	2.36
x2 = 0.04109, x3 = 0.9076	2.41

CCCCCCCCCCCC[N+](C)(C)Cc1ccccc1.[Cl-] + NCC(=O)NCC(=O)O + O
electrical conductivity [S/m], 101 kPa
Conditions	293.15 K	298.15 K	303.15 K	308.15 K	313.15 K
x2 = 0.0008945, x1 = 0.0002797	0.0793	0.0896	0.0999	0.111	0.123
x2 = 0.0008945, x1 = 0.0003	0.0824	0.0938	0.105	0.117	0.129
x2 = 0.0008945, x1 = 0.0003225	0.086	0.0984	0.109	0.123	0.135
x2 = 0.0008945, x1 = 0.0003431	0.0893	0.102	0.115	0.128	0.14
x2 = 0.0008946, x1 = 0.0001787	0.0623	0.069	0.0771	0.086	0.0944
x2 = 0.0008946, x1 = 0.000206	0.0676	0.0752	0.0839	0.093	0.103
x2 = 0.0008946, x1 = 0.0002337	0.0721	0.081	0.09	0.0999	0.111
x2 = 0.0008946, x1 = 0.0002576	0.0759	0.0855	0.0949	0.106	0.118
x2 = 0.0008947, x1 = 6.107e-05	0.0231	0.0264	0.0294	0.0327	0.036
x2 = 0.0008947, x1 = 8.317e-05	0.0312	0.0352	0.0392	0.0433	0.0476
x2 = 0.0008947, x1 = 0.0001051	0.0388	0.0437	0.0485	0.0537	0.059
x2 = 0.0008947, x1 = 0.0001274	0.0473	0.0523	0.0589	0.0647	0.0718
x2 = 0.0008947, x1 = 0.000152	0.0562	0.0624	0.0692	0.0771	0.0851
x2 = 0.001798, x1 = 0.0001447	0.056	0.0627	0.0696	0.0768	0.0846
x2 = 0.001798, x1 = 0.0001707	0.063	0.0704	0.0781	0.0865	0.0956
x2 = 0.001798, x1 = 0.0001977	0.0685	0.0766	0.0852	0.0946	0.105
x2 = 0.001798, x1 = 0.0002221	0.0729	0.0816	0.091	0.101	0.113
x2 = 0.001798, x1 = 0.0002443	0.0767	0.0861	0.0963	0.107	0.12
x2 = 0.001798, x1 = 0.0002649	0.0802	0.0902	0.101	0.112	0.126
x2 = 0.001798, x1 = 0.000284	0.0835	0.094	0.105	0.118	0.131
x2 = 0.001798, x1 = 0.0003015	0.0864	0.0974	0.109	0.122	0.137
x2 = 0.001798, x1 = 0.000321	0.0898	0.101	0.114	0.127	0.142
x2 = 0.001799, x1 = 5.376e-05	0.0229	0.0259	0.029	0.0323	0.0357
x2 = 0.001799, x1 = 7.599e-05	0.0313	0.0352	0.0394	0.0437	0.0482
x2 = 0.001799, x1 = 9.786e-05	0.0395	0.0443	0.0494	0.0546	0.0601
x2 = 0.001799, x1 = 0.0001201	0.0476	0.0533	0.0593	0.0655	0.0721
